Results from patent US9194802B2, “Luminescent probes having a phenanthridinyl antenna, and methods of use” (REGENTS OF THE UNIVERSITY OF MINNESOTA, priority 2012, dated 2015).

How the values were obtained:
[1] = Dickins et al., J. Am. Chem. Soc., 2002; cited from earlier work
ATP = assay: Stern-Volmer time-delayed luminescence quenching titration with ATP; assay type: binding; conditions: for Stern-Volmer constant KSV with ATP: excitation 346 nm, time-delay 0.1 ms, probe 10 μM, water, Tris 10 mM, pH 7.0, 20° C., n=3, emission integrated 450-650 nm (Tb) or 550-750 (Eu); for log KSV for ATP: from Stern-Volmer constants of Table 2
Method: (§1) Unless otherwise noted, starting materials were obtained from commercial suppliers and used without further purification. Water was deionized and further purified by a Millipore cartridge system (resistivity 1.8×10^7Ω). All organic extracts were dried over anhydrous MgSO4 and solvents were removed with a rotary evaporator. Flash chromatography was performed on Salicycle Silica Gel (230-400 mesh) or Brockmann activated aluminum oxide (neutral, 60 mesh). ^1H NMR spectra were recorded on a Varian 300 or Varian 500 at 300 MHz or 500 MHz, respectively, and ^13C NMR spectra on a Varian 300 at 75 MHz; the residual solvent peak was used as an internal reference. Data for ^1H NMR are recorded as follows: chemical shift (δ, ppm), multiplicity (s, singlet; br s, broad singlet; d, doublet, t, triplet; q, quartet; m, multiplet), integration, coupling constant (Hz). Data for ^13C NMR are reported in terms of chemical shift (δ, ppm). Mass spectra (LR=lo2w resolution; HR=high resolution; MS-ESI=electrospray mass spectrometry) were recorded on a Bruker BioTOF II. Purity of lanthanide complexes was evaluated by high performance liquid chromatography (HPLC) using a Varian Microsorb 300-5 C18 250 mm×4.6 mm at a flow rate was 1.0 mL/min (see supporting information for spectra and solvent gradients). UV-Vis data was obtained on a Cary Bio 100 UV-Vis Spectrophotometer. Data was collected over the range of 200-800 nm. Fluorescence data was acquired on a Varian Cary Eclipse Fluorescence Spectrophotometer using a quartz cell with a path length of 10 mm, excitation slit width of 5 nm and emission slit width of 5 nm at T=20° C. Solutions were not degased prior to measurement of their luminescence spectra and lifetimes.

ADP = assay: Stern-Volmer time-delayed luminescence quenching titration with ADP; assay type: binding; conditions: for Stern-Volmer constant KSV with ADP: excitation 346 nm, time-delay 0.1 ms, probe 10 μM, water, Tris 10 mM, pH 7.0, 20° C., n=3, emission integrated 450-650 nm (Tb) or 550-750 (Eu)
Method: as §1

AMP = assay: Stern-Volmer time-delayed luminescence quenching titration with AMP; assay type: binding; conditions: for Stern-Volmer constant KSV with AMP: excitation 346 nm, time-delay 0.1 ms, probe 10 μM, water, Tris 10 mM, pH 7.0, 20° C., n=3, emission integrated 450-650 nm (Tb) or 550-750 (Eu)
Method: as §1

GTP = assay: Stern-Volmer time-delayed luminescence quenching titration with GTP; assay type: binding; conditions: for Stern-Volmer constant KSV with GTP: excitation 346 nm, time-delay 0.1 ms, probe 10 μM, water, Tris 10 mM, pH 7.0, 20° C., n=3, emission integrated 450-650 nm (Tb) or 550-750 (Eu)
Method: as §1

GDP = assay: Stern-Volmer time-delayed luminescence quenching titration with GDP; assay type: binding; conditions: excitation 346 nm, time-delay 0.1 ms, probe 10 μM, water, Tris 10 mM, pH 7.0, 20° C., n=3, emission integrated 450-650 nm (Tb) or 550-750 (Eu)
Method: as §1

GMP = assay: Stern-Volmer time-delayed luminescence quenching titration with GMP; assay type: binding; conditions: excitation 346 nm, time-delay 0.1 ms, probe 10 μM, water, Tris 10 mM, pH 7.0, 20° C., n=3, emission integrated 450-650 nm (Tb) or 550-750 (Eu)
Method: as §1

CTP = assay: Stern-Volmer time-delayed luminescence quenching titration with CTP; assay type: binding; conditions: excitation 346 nm, time-delay 0.1 ms, probe 10 μM, water, Tris 10 mM, pH 7.0, 20° C., n=3, emission integrated 450-650 nm (Tb) or 550-750 (Eu)
Method: as §1

CDP = assay: Stern-Volmer time-delayed luminescence quenching titration with CDP; assay type: binding; conditions: excitation 346 nm, time-delay 0.1 ms, probe 10 μM, water, Tris 10 mM, pH 7.0, 20° C., n=3, emission integrated 450-650 nm (Tb) or 550-750 (Eu)
Method: as §1

CMP = assay: Stern-Volmer time-delayed luminescence quenching titration with CMP; assay type: binding; conditions: excitation 346 nm, time-delay 0.1 ms, probe 10 μM, water, Tris 10 mM, pH 7.0, 20° C., n=3, emission integrated 450-650 nm (Tb) or 550-750 (Eu)
Method: as §1

UTP = assay: Stern-Volmer time-delayed luminescence quenching titration with UTP; assay type: binding; conditions: excitation 346 nm, time-delay 0.1 ms, probe 10 μM, water, Tris 10 mM, pH 7.0, 20° C., n=3, emission integrated 450-650 nm (Tb) or 550-750 (Eu)
Method: as §1

UDP = assay: Stern-Volmer time-delayed luminescence quenching titration with UDP; assay type: binding; conditions: excitation 346 nm, time-delay 0.1 ms, probe 10 μM, water, Tris 10 mM, pH 7.0, 20° C., n=3, emission integrated 450-650 nm (Tb) or 550-750 (Eu)
Method: as §1

UMP = assay: Stern-Volmer time-delayed luminescence quenching titration with UMP; assay type: binding; conditions: excitation 346 nm, time-delay 0.1 ms, probe 10 μM, water, Tris 10 mM, pH 7.0, 20° C., n=3, emission integrated 450-650 nm (Tb) or 550-750 (Eu)
Method: as §1

[2] = test system: PKAc, the catalytic domain of protein kinase A; assay: Continuous monitoring of ATP to ADP conversion during phosphorylation of KRRWSAP-NH2 by PKAc; assay type: biochemical; conditions: both probes 10 μM, PKAc 1 μM, peptide 1.5 mM, ATP 1 mM, 37° C., 0-6 hours; Tb at 490 and 545 nm, Eu at 688 and 700 nm
Method: FIG. 29 illustrates an exemplary embodiment of continuous monitoring of ATP to ADP conversion during enzymatic phosphorylation of the peptide KRRWSAP-NH2 by its kinase PKAc. Experimental conditions: [Tb-DOTAm-Phen]^3+=10 μM, Eu-DOTA-Phen=10 μM, [PKAc]=1 μM, [amide-blocked KRRWSAP-NH2]=1.5 mM, [ATP]=1 mM, [Tris]=10 mM, [Brij-35]=0.05%, [MgCl2]=50 mM, [EGTA]=5 mM, [DTT]=2 mM, pH 7.0, T=37° C., excitation at 346 nm, time delay=0.1 ms. Reaction time: 0-6 hours.
The ability of the two lanthanide probes to monitor enzymatic reactions involving ATP or GTP directly and continuously was evaluated with PKAc, the catalytic domain of protein kinase A. PKAc is a serine-threonine protein kinase that is actively studied as a biological target in cancer therapy (Naviglio et al., Expert Opin. Ther. Targets, 2009, 13, 83-92). […] Phosphorylation of the substrate and conversion of ATP to ADP takes place only when all components are present in the buffer. […] [Tb-DOTAm-Phen]^3+ and Eu-DOTA-Phen are thus able to directly monitor kinases' activities by time-gated luminescence spectroscopy. […] It should be noted, however, that these probes are not intended for use in cells as the presence of more than two purine nucleotides would make the results hard to interpret.

Compound	Stern-Volmer constant KSV with ATP (ATP)	log KSV for ATP (ATP)	Stern-Volmer constant KSV with ADP (ADP)	Stern-Volmer constant KSV with AMP (AMP)	Stern-Volmer constant KSV with GTP (GTP)	Stern-Volmer constant KSV with GDP (GDP)	Stern-Volmer constant KSV with GMP (GMP)	Stern-Volmer constant KSV with CTP (CTP)	Stern-Volmer constant KSV with CDP (CDP)	Stern-Volmer constant KSV with CMP (CMP)	Stern-Volmer constant KSV with UTP (UTP)	Stern-Volmer constant KSV with UDP (UDP)	Stern-Volmer constant KSV with UMP (UMP)	time-gated luminescence as the PKAc reaction proceeds (ADP:ATP ratio increases) [2]	also measured
O=C([O-])CN1CCN(CC(=O)[O-])CCN(CC(=O)O)CCN(CC(=O)[O-])CC1.[Gd+3] [Gd-DOTA]															log Ka with biphosphate [1]: 2.2
Eu-DOTA-Phen	0.065(1)	−1.2	0.058(1)	0.053(1)	0.099(1)	0.164(3)	0.118(2)	0.006(1)	0.008(1)	0.008(1)	0.001(2)	0.002(2)	0.007(2)	remains constant	
Tb-PhenDOTAm	1.28 ± 0.05	0.11	0.85 ± 0.02	0.397 ± 0.005	33.1 ± 0.1	9.84 ± 0.05	2.84 ± 0.01	0.103 ± 0.007	0.149 ± 0.009	0.139 ± 0.006	0.047 ± 0.002	0.065 ± 0.007	0.070 ± 0.004	increases	time-gated luminescence quenched by ATP (ATP; 1 mM ATP): 59.7%; Stern-Volmer constant KSV with ATP (ATP; listed as [Tb-DOTAm-Phen]^3+): 1.28(5); phosphorescence quenched by ADP (ADP; 1 mM ADP): 47.4%; Stern-Volmer constant KSV with ADP (ADP; listed as [Tb-DOTAm-Phen]^3+): 0.85(2); phosphorescence quenched by AMP (AMP; 1 mM AMP): 31.0%; Stern-Volmer constant KSV with AMP (AMP; listed as [Tb-DOTAm-Phen]^3+): 0.397(5); increase of apparent binding affinity for GTP over that of the neutral complex (12) (GTP; +3 charged probe (1) versus neutral complex (12)): 300 fold; Stern-Volmer constant KSV with GTP (GTP; listed as [Tb-DOTAm-Phen]^3+): 33.1(1); Stern-Volmer constant KSV with GDP (GDP; listed as [Tb-DOTAm-Phen]^3+): 9.84(5); Stern-Volmer constant KSV with GMP (GMP; listed as [Tb-DOTAm-Phen]^3+): 2.84(1); Stern-Volmer constant KSV with CTP (CTP; listed as [Tb-DOTAm-Phen]^3+): 0.103(7); Stern-Volmer constant KSV with CDP (CDP; listed as [Tb-DOTAm-Phen]^3+): 0.149(9); Stern-Volmer constant KSV with CMP (CMP; listed as [Tb-DOTAm-Phen]^3+): 0.139(6); Stern-Volmer constant KSV with UTP (UTP; listed as [Tb-DOTAm-Phen]^3+): 0.047(2); Stern-Volmer constant KSV with UDP (UDP; listed as [Tb-DOTAm-Phen]^3+): 0.065(7); Stern-Volmer constant KSV with UMP (UMP; listed as [Tb-DOTAm-Phen]^3+): 0.070(4)
